Row | melting point [°C] | Compound
1 | 42 to 46 | CCCc1ccc(-n2nc(Cl)cc2-c2ccc(S(C)(=O)=O)cc2)cc1[N+](=O)[O-]
2 | 198 to 204 | Cc1cccc(NC(=O)c2cccc(C(F)(F)F)c2)c1C(=O)O
3 | 166 to 168 | Fc1ccc(NCc2ccc(NCc3ccccc3)nc2)nc1
4 | 213 to 215 | CCNC(=O)c1ccc(CN2CCN(c3ccncc3)CC2)cc1
5 | 252 | NC(=O)CON=c1c2nccc3cccc(c32)n2cccc12
6 | 59 | COC(=O)c1ccc(Cl)c(CN2CCN(C)C2=O)c1Cl
7 | 232 | Cc1ccc(NC(=S)Nc2cccc3c2C2CCCCN2C3=O)nc1 (centres undefined)
8 | 84.5 to 86.5 | ClC(c1ccccc1)(c1ccccc1)c1ccncc1
9 | 194 to 195 | CC(C)(C)c1cc(NC(=O)NCc2ccc(N)cc2)cc(C(C)(C)C)c1O
10 | 145 to 147 | Cc1ccccc1OCC(O)CN1CCC(N2CCCNC2=O)CC1 (centres undefined)
11 | 110 | CC(C)(C)c1cccc(S(=O)(=O)n2c(Cc3ccc(C(=O)O)s3)cc3cc(C(F)(F)F)ccc32)c1
12 | 118 to 120 | CCc1ccccc1-c1nc(-c2ccc(Cl)cc2)n[nH]1
13 | 112 | CCC1CC(=O)N(CCc2ccc(N)cc2)N=C1c1ccc(OC)c(OC)c1 (centres undefined)
14 | 192 to 196 | CNC(=S)NS(=O)(=O)c1cc(CCNC(=O)c2cc(Cl)ccc2OC)ccc1-c1ccccc1
15 | 111 to 112 | c1ccc(-c2nc(COc3ccc(CCCn4ccnc4)cc3)co2)cc1
16 | 169 to 172 | COC(=O)c1cc(C#N)cn1CC(=O)c1ccccc1
17 | 204 to 206 | O=C(Nc1cccc(F)n1)c1cc(-c2ccc(Cl)c(Cl)c2)nc2ccccc12
18 | 146 to 148 | CONC(=O)Nc1ccc(-c2sc3c(c2CN(C)C(C)c2ccccn2)c(=O)n(-c2ccccc2)c(=O)n3Cc2c(F)cccc2F)cc1 (centres undefined)
19 | 126 to 127 | COc1ccc(C(=O)N2CCc3cc(OCc4ccccc4)c(OC)cc3C2)cc1
20 | 100 | CC(=O)Oc1ccc(-c2ccc(C(C)=O)cc2)cc1Br
21 | 180 to 182 | O=Cc1cc2cc(OCc3ccccc3)ccc2nc1Cl
22 | 90 to 93 | O=C(O)c1cc([N+](=O)[O-])cc2c1Nc1ccc(CCCc3ccc(Cl)c(Cl)c3)cc1O2
23 | 165 to 168 | COc1cccc(C(O)CN(C)Cc2sc3c(=O)c(C(=O)NCc4ccc(Cl)cc4)cn(C)c3c2CO)c1 (centres undefined)
24 | 95 to 97 | O=C(CCC(=O)N1CCC[C@H]1C(=O)O)c1ccccc1
25 | 233 to 234 | O=C(Cc1ccc(OC2Cc3ccccc3C2)cc1)NC1(C(=O)O)Cc2ccc(-c3ccc(Cl)cc3)cc2C1 (centres undefined)

Row | melting point [°C] | Compound
26 | 148 to 150 | CC(=O)Nc1ccc2c(c1)N(C1CCN(CCc3ccc(F)cc3)CC1)CC2
27 | 183 to 184 | O=C(Nc1cc(Cl)ccc1O)Nc1ccccc1C(F)(F)F
28 | 229 to 230 | O=C(NCCCc1c[nH]c(-c2ccc(F)cc2)c1-c1ccncc1)C(F)(F)F
29 | 139 to 141 | Cc1cc(O)c(SCc2ccc(Cl)cc2)c(=O)o1
30 | 121 to 123 | O=C(NCc1ccccc1)c1ccnc(N2CCN(CC3CC3)C2=O)c1
31 | 74 to 78 | O=c1ccnc(NCCCN(Cc2cccc(Cl)c2)c2ccccn2)[nH]1
32 | 137 to 140 | O=C(O)C1Cc2c(ncn2CCC2CCCCC2)CN1C(=O)C(c1ccccc1)c1ccccc1 (centres undefined)
33 | 29 to 31 | COC(=O)Cc1ccsc1-c1ccccc1
34 | 138 to 139 | C/C(=C\c1ccc(C(=O)OCCO)cc1)c1ccc2c(c1)C(C)(C)CCC2(C)C
35 | 141 to 142 | CCNC(=O)C(C)Oc1ccc(N(C)c2nc3cc(Cl)ccc3o2)cc1 (centres undefined)
36 | 72 to 82 | O=C1CCC(CCN2CC(N3CCOCC3)C2)(c2ccc(Cl)c(Cl)c2)CN1Cc1ccc(-c2ccccc2)cc1 (centres undefined)
37 | 202 to 203 | O=C1NC(=O)c2ccc(I)cc2/C1=C/Nc1ccc(CN2CCCCC2)cc1
38 | 108 to 110 | COC(=O)c1cc([N+](=O)[O-])ccc1ON=C(C)c1ccccc1
39 | 180 | Cc1cccc(NC(=O)NCC(=O)N(CC(=O)OC(C)(C)C)c2ccccc2)c1
40 | 89 to 91 | CC(C)(C)OC(=O)c1ccc(N2CCC(N)CC2)cc1
41 | 90 | O=C(NCc1cccnc1)C1CCCCC1
42 | 106 to 108 | CN(C)c1ccncc1CCCOc1ccccc1OCCCC(=O)O
43 | 124 to 125 | CCCCCCCC(=O)NCc1cccc(-c2ccc(CCC(=O)O)cc2)c1
44 | 219 to 221 | Oc1ccc(-c2cc3ncccc3cn2)cc1
45 | 95 to 96 | O=C(c1ccccc1)N1CCn2c(CN3CCCCC3)ccc2C1
46 | 128 | N#Cc1cccc(-c2ccc(OCC(CN3C(=O)CCC3=O)N(O)C=O)cc2)c1 (centres undefined)
47 | 120 to 122 | COc1ccc(C(=O)Cl)cc1OC(=O)c1ccccc1
48 | 154 to 156 | O=C(O)COc1ccc(OC(F)(F)F)cc1C(=O)NCc1cccc([N+](=O)[O-])c1
49 | 148 to 149 | CC(C)(C)c1ccc(NC(=O)c2ccc(C3(C)OCCCO3)cc2)cc1
50 | 284 to 296 | CC1(C)Cc2c(ccc3c2C(c2cccc(-c4ccc(C(N)=O)cc4)c2)=NCC3(C)C)O1

More lines, now with the values behind:

Row | Compound | melting point [°C]
51 | COc1c(C(N)=O)sc(C(N)=O)c1N=NN(C)C | 226 to 228
52 | CC1=C(C(=O)OCOC(=O)C(C)(C)C)N2C(=O)C(NC(=O)OC(C)(C)C)C2SC1 (centres undefined) | 97
53 | Cc1cc(SC(C)C)c(NC(=O)CCCSc2nc3ccccc3o2)c(SC(C)C)n1 | 128 to 129
54 | CC(C=CC1=C(C)C(=O)CC1(C)C)=CC=O | 91 to 93
55 | CCOCc1cc(N)ccc1N1C(=O)c2ccc(Cl)cc2C1=O | 154 to 156
56 | NC(=S)N(c1ccccc1)c1cccc(NNC=O)c1 | 143 to 145
57 | CCCc1ccc2nc(Cl)cn2n1 | 73.9 to 80
58 | CCCOc1ccc(S(=O)(=O)N2CCC(C(=O)OCC)CC2)cc1-c1nc2cc(N)c(N)cc2c(=O)[nH]1 | 197 to 199
59 | C=CC[C@@H](N[S@](=O)C(C)(C)C)c1cc(F)cc(C#N)c1 | 38 to 40
60 | N#Cc1ccc(Sc2ccc3cc(Br)ccc3c2)cc1C(F)(F)F | 114 to 116
61 | CCCc1c(S(=O)CCCOc2ccc(C(C)=O)c(OCCCC(=O)OCC)c2CCC)ccc(C(C)=O)c1O (centres undefined) | 74 to 76
62 | Cn1c([N+](=O)[O-])cnc1C=Cc1nnc(-c2ccccc2)s1 | 257
63 | C1=C(c2cc(-c3ccccc3)no2)CCN(Cc2c[nH]c3ncccc23)C1 | 224 to 226
64 | C#CCOc1ccccc1OS(=O)(=O)NC(=O)Nc1nc(OC)cc(OC)n1 | 125 to 126
65 | CNS(=O)(=O)c1sc2ccccc2c1CC(=O)O | 190 to 192
66 | Cc1cc(-n2c(C)nnc2C)cc2ccc(=O)[nH]c12 | 308 to 310
67 | CN1C(=O)C2(CCN(CCCC(O)c3ccc(F)cc3)CC2)c2ccccc21 (centres undefined) | 126 to 128
68 | CCCCNC(=O)C(O[Si](C)(C)C(C)(C)C)c1ccccc1Br (centres undefined) | 38 to 39
69 | CCOC(=O)c1cc2cc(OCCOC)cc(N)c2[nH]1 | 162 to 163
70 | N#Cc1ncn2c1[C@@H]1CCN1C(=O)c1c(Br)cccc1-2 | 133 to 136
71 | COc1cccc(SSc2cccc(OC)c2S(=O)(=O)NC(C)(C)C)c1S(=O)(=O)NC(C)(C)C | 275
72 | CC(Cl)(Cl)C(NC(=O)c1cccc(Cl)c1)NC(=NC#N)Nc1ccc(C(F)(F)F)nc1 (centres undefined) | 191 to 192
73 | COc1ccc2c(c1)C(=O)C(=Cc1cccc([N+](=O)[O-])c1)CC2 | 175 to 176
74 | CCC(CC)(CC)C(=O)Nc1nn(C)c2c1sc1ncccc12 | 138 to 139
75 | COC(=O)C(=O)c1c[nH]c2c1ccc1c3ccccc3[nH]c12 | > 290

Row | Compound | melting point [°C]
76 | CC(C)(C)c1ccc(N(c2ccccc2)c2ccc(-c3ccc(Nc4ccccc4)cc3)cc2)cc1 | 126 to 127
77 | N#Cc1cc(-c2nc3cncnc3s2)ccc1Sc1ccccc1F | 178 to 180
78 | N#Cc1cc(-c2ccoc2)c2ccc(COc3cc(F)cc(-c4ccccc4)c3)cc2n1 | 150 to 152
79 | CCCCCNS(=O)(=O)NC(=O)/C=C/c1ccc(OCCOC)cc1Oc1ncc(C(F)(F)F)cc1Cl | 120 to 122
80 | CSc1ncc2nc(C)nc(Nc3ccc(F)c(Cl)c3)c2n1 | 70 to 75
81 | COc1cc(C(=O)c2c(C)nn(C)c2O)cc(OC)c1OC | 189 to 191
82 | CCN(CC)C(=O)Cn1c(=N)sc2cc(OC(F)(F)F)ccc21 | 223
83 | O=C(Cl)c1cc([N+](=O)[O-])cc2c1OCCO2 | 108
84 | C#CCOc1cccc(CCCCCCCCCCCCCCC)c1 | 26 to 27
85 | Cc1ccc(C)c(NC(=O)C(C)c2ccc(N)c(N)c2)c1 (centres undefined) | 120 to 121
86 | Cc1n[nH]c(/C=C/c2ccccc2)n1 | 131 to 134
87 | Cc1ccc2c(cc(CCCC(=O)O)n2S(=O)(=O)c2ccc3ncsc3c2)n1 | 67 to 70
88 | Cc1cnc2c(C#N)c(-c3ccc(S(=O)(=O)NC4(C(F)(F)F)CC4)cn3)n(C3CCCC3)c2c1 | 249 to 251
89 | COC(=O)c1c(OC(=O)N(c2ccccc2)c2ccccc2)cc(C(F)(F)F)nc1C(F)(F)F | 114 to 116
90 | Nc1cc(CO)cc(S(N)(=O)=O)c1Oc1cccc(C(F)(F)F)c1 | 133 to 134
91 | N#Cc1cccc(-c2nc(S(=O)(=O)C(F)(F)F)cc3cccnc23)c1 | 102 to 104
92 | CN(C)CCCCOc1ccc(-c2nnc(CSCCOc3ccccc3)o2)cc1 | 62 to 63
93 | COC(=O)C(C=CC(=O)O)=CNc1ccc(Cl)cc1 | 160 to 161
94 | O=c1cc(CO)oc2cc(S)ccc12 | 139 to 140
95 | CCCNC1=NS(=O)(=O)c2cc(Cl)sc2N1 | 246 to 247
96 | COc1cc2cc(C(N)=O)cnc2cc1F | 231
97 | C=CC(=O)OC1(C)CCCC2C3C=CC(C3)C21 (centres undefined) | 41 to 42
98 | CC1=CC(C)(C)c2ccc(Oc3ccc([N+](=O)[O-])cc3)cc2O1 | 80
99 | CCC(=O)Oc1cc(C(=O)c2c(Cl)cccc2Cl)c(C)cc1OC | 142 to 145
